According to patent US11312727B1, “Macrocyclic flu endonuclease inhibitors” (Janssen BioPharma, Inc., priority 2018, dated 2022):
Like-named read-outs stand apart in the source and are kept apart here.

Key:
[1] = test system: Human lung carcinoma A549 cells; settings: uninfected A549 cells, CellTiter-Glo
[2] = test system: Influenza strain A549 A/WSN/33 (H1N1); assay: microbe, parasite or virus in culture; assay type: cell-based; settings: A549 cells, influenza A/WSN/33 (H1N1), 20 hours incubation, read-out: A549_A(H1N1) EC50
[3] = biological target: EN PA (full length recombinant PA endonuclease) (Influenza A virus (strain A/Wilson-Smith/1933 H1N1) (Influenza A virus (strain A/WS/1933 H1N1)), UniProt P15659); assay: biochemical; settings: full length EN PA 1 to 10 nM, 50 nM FRET probe; mean of a minimum of two independent experiments; read-out: FRET_ _IC50
in vitro = settings: human, CC50, uninfected A549 cells, CellTiter-Glo
[4] = from O=C1c2c(OCc3ccccc3)c(=O)ccn2N(C(c2ccccc2)c2ccccc2O)CN1CC1CC1CBr; ether bond; K2CO3; CH3CN; 44.8 mM; […]; 0.5 h

| Compound | CC50 [1] [nM] | EC50 [2] [nM] | other results |
| --- | --- | --- | --- |
| O=C1c2c(O)c(=O)ccn2N2CN1C/C=C/CCc1ccccc1C2c1cccc(F)n1 (single isomer, unassigned) [Compound 78A, (16*R,E)-16-(6-fluoropyridin-2-yl)-4-hydroxy-7,10,11,16-tetrahydro-6,17-methanobenzo[k]pyrido[1,2-b][1,2,5]triazacyclotridecine-3,5-dione] | > 1000 | 19 |  |
| O=C1c2c(O)c(=O)ccn2N2CN1C/C=C\CCc1ccccc1C2c1ccncc1 (single isomer, unassigned) [Compound 52B, (16*S,*Z)-4-hydroxy-16-(pyridin-4-yl)-7,10,11,16-tetrahydro-6,17-methanobenzo[k]pyrido[1,2-b][1,2,5]triazacyclotridecine-3,5-dione] | > 2000 | 84 |  |
| O=C1c2c(O)c(=O)ccn2N2CN1C/C=C\CCc1ccccc1C2c1ccncc1 (single isomer, unassigned) [Compound 52A, (16*R,*Z)-4-hydroxy-16-(pyridin-4-yl)-7,10,11,16-tetrahydro-6,17-methanobenzo[k]pyrido[1,2-b][1,2,5]triazacyclotridecine-3,5-dione] | > 2000 | > 1000 |  |
| O=C1c2c(O)c(=O)ccn2N2CN1CCCCCOc1cccc3c1[C@@H]2c1ccccc1SC3 (single isomer, unassigned) [Compound 69A, (23b*R)-6-hydroxy-10,11,12,13,18,23b-hexahydro-9H-1,8-methano[1]benzothiepino[5,4,3-lm]pyrido[2,1-i][1,7,10,11]benzoxatriazacyclotetradecine-5,7-dione] | > 2000 | > 1000 |  |
| O=C1c2c(O)c(=O)ccn2N2CN1CCCCCOc1cccc3c1[C@H]2c1ccccc1SC3 (single isomer, unassigned) [Compound 69B, (23b*S)-6-hydroxy-10,11,12,13,18,23b-hexahydro-9H-1,8-methano[1]benzothiepino[5,4,3-lm]pyrido[2,1-i][1,7,10,11]benzoxatriazacyclotetradecine-5,7-dione] | > 2000 | 27 |  |
| CC1CCCCc2ccccc2C(c2ccccc2)N2CN1C(=O)c1c(O)c(=O)ccn12 (stereo not drawn) [Compound 13, 4-hydroxy-7-methyl-15-phenyl-8,9,10,15-tetrahydro-7H-6,16-methanobenzo[j]pyrido[1,2-b][1,2,5]triazacyclododecine-3,5-dione] |  |  | IC50 [3]: 46 nM; CC50 (in vitro): > 2000 nM; EC50 ([2]; Influenza A virus, A549, 20 h): 19 nM |
| O=C1c2c(O)c(=O)ccn2N2CN1C/C=C/CCc1c(F)cccc1C2c1cccc(F)n1 (single isomer, unassigned) [Compound 76A, (16*R,E)-12-fluoro-16-(6-fluoropyridin-2-yl)-4-hydroxy-7,10,11,16-tetrahydro-6,17-methanobenzo[k]pyrido[1,2-b][1,2,5]triazacyclotridecine-3,5-dione] | 43900 | 3590 |  |
| O=C1c2c(OCc3ccccc3)c(=O)ccn2N2CN1CC1CC1COc1ccccc1C2c1ccccc1 (stereo not drawn) |  |  | ring closure, yield of all isomers [4]: 55.8% |
| O=C1c2c(O)c(=O)ccn2N2CN1C/C=C/CCc1c(F)cccc1C2c1cccc(F)n1 (single isomer, unassigned) [Compound 76B, (16*S,E)-12-fluoro-16-(6-fluoropyridin-2-yl)-4-hydroxy-7,10,11,16-tetrahydro-6,17-methanobenzo[k]pyrido[1,2-b][1,2,5]triazacyclotridecine-3,5-dione] | > 200 | 6 |  |
